Data: patent US20230303486A1, “CYCLOBUTYL-UREA DERIVATIVES” (Idorsia Pharmaceuticals Ltd, priority 2020, published 2023)
Like-named read-outs stand apart in the source and are kept apart here.

Test system: primary neuronal cultures from embryonic rat brains
Assay: Rat oscillation assay (FLIPR, neuronal calcium oscillations)
Assay type: cell-based
Conditions: Rattus norvegicus
Protocol: This assay is a functional phenotypic assay designed to mimic epileptic seizures using primary neuronal cultures from embryonic rat brains, which form a functional neuronal network that generate synchronized intracellular calcium concentration oscillations when cultured at high density in 384-well plate. The epileptic phenotype is induced by incubating the neurons in magnesium-free assay buffer, that results in increased probability of NMDA receptor activation, leading to an increased frequency and amplitude of intracellular calcium oscillations. Once neurons are incubated with the calcium indicator dye Fluo-8 AM (Tebu-bio), neuronal calcium oscillations can be monitored in real time using FLIPR® Tetra (fluorometric plate reader, Molecular Devices). With these recordings, the effect of anti-epileptic drugs can be quantified. The anti-epileptic effect of compounds, which activate directly or indirectly the Kv7 channels can be modulated by the Kv7 channel blocker XE-991. The assay was performed as described previously (Pacico N, Mingorance-Le Meur A. New In Vitro Phenotypic Assay for Epilepsy: Fluorescent Measurement of Synchronized Neuronal Calcium Oscillations. PLoS ONE 9(1) 2014) with modifications described hereafter.
Animal care followed standard procedures in accordance with swiss institutional guidelines. Dissociated neuronal cultures were obtained from cerebral cortices of embryonic Wistar rats at embryonic stage E18 (Charles River). The uterine horns were removed by caesarian surgery from deeply anesthetized rats (Isofurane) and sacrificed by decapitation. The embryos were decapitated by closing forceps. The brains were isolated and dissected one by one in ice-cold PBS (Life Technologies) under optical control using a binocular. Meninges, olfactory bulbs, and basal ganglia were removed. Cortical hemispheres (still including the hippocampus) were cut in small pieces with tweezers and placed on ice in prechilled Hibernate-E medium (Life technology). The hemispheres were then incubated in 10 mL of Hibernate-E containing 15 U/mL papain (Worthington) for 25 min at 30° C. with gentle mixing every 10 min. Genomic DNA was then digested by prolonging the incubation during 10 min at 37° C. in presence of 4 U/mL rDNase I (Ambion). The obtained suspension was then centrifuged at 800 g for 5 min and the cell pellet was resuspended in 2 mL Hibernate-E and gently dissociated by pipetting up and down 10 times with a plastic Pasteur pipette resulting in a homogenous cell suspension. This suspension was immediately filtered through a 70 µm cell strainer (MACS® SmartStrainer, Miltenyi), collected in 10 mL Hibernate-E and centrifuged at 800 g for 5 min. The cell pellet was resuspended in Neurobasal medium, supplemented with 2% B-27, 0.5 mM Glutamax-I, 100 U/mL penicillin, 100 µg/mL streptomycin (Life Technologies) and diluted at the final concentration of 300′000 cells/mL. One day before plating the cells, 384-well plates were coated with 25 µL/well of 0.1 % poly-L-lysine solution (Sigma), incubated overnight at 37° C., washed two times with sterile distilled water and allowed to dry at room temperature for >2 h. The neurons were seeded at a density of 15′000 cells/well in 50 µL/well in a 384-well black, clear-bottomed plates (Corning) and subsequently maintained in an incubator at 37° C., 5% CO2 and 95% humidity for 8 to 10 days. After 3 and 7 days, 40% of media was renewed under sterile conditions.
Neurons seeded in the assay plates were washed with Hank’s balanced salt solution (HBSS) devoid of Ca^2+ and Mg^2+, supplemented with 20 mM HEPES (Life Technologies) and 2 mM CaCl2 (Sigma), pH 7.4 (hereafter called Assay buffer) using a Biotek EL406 plate washer. Neurons were loaded with 1 µM Fluo-8 AM in Assay buffer for 15 min at 37° C., 5% CO2. […]

[1] = 20 min, 20 min after compound addition, AUC of fluorescence, read-out: FLIPR: IC50 [nM] 20 min
[2] = Cortical neurone, acute phase, ratio of AUC fluorescence before and after compound addition, rat cortical neurons, Mg-free buffer, read-out: FLIPR: IC50 [nM] acute

Row | SMILES | IC50 [1] [nM] | IC50 [2] [nM]
1 | O=C(NCc1cccc(OCC(F)(F)F)c1)NC12CC(F)(C1)C2 [Example 17, 1-(3-Fluoro-Bicyclo[1.1.1]Pent-1-yl)-3-[3-(2,2,2-Trifluoro-Ethoxy)-Benzyl]-Urea] | 239 | 202
2 | O=C(NCc1cccc(OCC(F)(F)F)c1)NC1CC(C(F)F)C1 (centres unmarked) [Example 18, 1-(3-Difluoromethyl-cyclobutyl)-3-[3-(2,2,2-trifluoro-ethoxy)-benzyl]-urea] | 1080 | 377
3 | O=C(NCc1cccc(OCC(F)(F)F)c1)NC12CC(C(F)(F)F)(C1)C2 [Example 19, 1-[3-(2,2,2-Trifluoro-ethoxy)-benzyl]-3-(3-trifluoromethyl-bicyclo[1.1.1]pent-1-yl)-urea] | 111 | 50
4 | O=C(NCc1cccc(OC(F)F)c1)NC12CC(F)(C1)C2 [Example 20, 1-(3-Difluoromethoxy-Benzyl)-3-(3-Fluoro-Bicyclo[1.1.1]Pent-1-yl)-Urea] | 467 | 566
5 | O=C(NCc1cccc(OC(F)F)c1)NC1CC(C(F)F)C1 (centres unmarked) [Example 21, 1-(3-Difluoromethoxy-benzyl)-3-(3-difluoromethyl-cyclobutyl)-urea] | 942 | 373
6 | O=C(NCc1cccc(OC(F)F)c1)NC12CC(C(F)(F)F)(C1)C2 [Example 22, 1-(3-Difluoromethoxy-benzyl)-3-(3-trifluoromethyl-bicyclo[1.1.1]pent-1-yl)-urea] | 311 | 134
7 | O=C(NCc1cccc(OC(F)(F)F)c1)NC1CC(C(F)F)C1 (centres unmarked) [Example 25, 1-(3-Difluoromethyl-cyclobutyl)-3-(3-trifluoromethoxy-benzyl)-urea] | 610 | 235
8 | O=C(NCc1cccc(OC(F)(F)F)c1)NC12CC(C1)C2 [Example 26, 1-Bicyclo[1.1.1]pent-1-yl-3-(3-trifluoromethoxy-benzyl)-urea] | 315 | 295
9 | O=C(NCc1cccc(C(F)F)c1)NC1CC(C(F)F)C1 (centres unmarked) [Example 27, 1-(3-Difluoromethyl-Benzyl)-3-(3-Difluoromethyl-Cyclobutyl)-Urea] | 1730 | 1340
10 | O=C(NCc1cccc(C(F)F)c1)NC12CC(C(F)(F)F)(C1)C2 [Example 28, 1-(3-Difluoromethyl-Benzyl)-3-(3-Trifluoromethyl-Bicyclo[1.1.1]Pent-1-yl)-urea] | 203 | 117
11 | O=C(NCc1ccnc(OC(F)(F)F)c1)NC1CC(C(F)F)C1 (centres unmarked) [Example 29, 1-(3-Difluoromethyl-Cyclobutyl)-3-(2-Trifluoromethoxy-Pyridin-4-Ylmethyl)-Urea] | 2150 | 367
12 | O=C(NCc1ccnc(OC(F)(F)F)c1)NC12CC(C(F)(F)F)(C1)C2 [Example 30, 1-(2-Trifluoromethoxy-Pyridin-4-Ylmethyl)-3-(3-Trifluoromethyl-Bicyclo[1.1.1]Pent-1-yl)-Urea] | 1480 | 804
13 | O=C(NCc1cccc(C(F)(F)F)c1)NC12CC(C1)C2 [Example 35, 1-Bicyclo[1.1.1]Pent-1-yl-3-(3-Trifluoromethyl-Benzyl)-Urea] | 717 | 231
14 | O=C(NCc1cccc(C(F)(F)F)c1)NC12CC(F)(C1)C2 [Example 36, 1-(3-Fluoro-bicyclo[1.1.1]pent-1-yl)-3-(3-trifluoromethyl-benzyl)-urea] | 344 | 245
15 | O=C(NCc1cccc(C(F)(F)F)c1)NC1CC(C(F)F)C1 (centres unmarked) [Example 38, 1-(3-Difluoromethyl-cyclobutyl)-3-(3-trifluoromethyl-benzyl)-urea] | 390 | 135
16 | CC12CC(NC(=O)NCc3cccc(C(F)(F)F)c3)(C1)C2 [Example 39, 1-(3-Methyl-bicyclo[1.1.1]pent-1-yl)-3-(3-trifluoromethyl-benzyl)-urea] | 68 | 41
17 | O=C(NCc1cccc(C(F)(F)F)c1)NC12CC(CF)(C1)C2 [Example 40, 1-(3-Fluoromethyl-bicyclo[1.1.1]pent-1-yl)-3-(3-trifluoromethyl-benzyl)-urea] | 248 | 149
18 | O=C(NCc1cccc(C(F)(F)F)c1)NC1CC(C(F)(F)F)C1 (centres unmarked) [Example 41, 1-(3-Trifluoromethyl-benzyl)-3-(3-trifluoromethyl-cyclobutyl)-urea] | 117 | 73
19 | O=C(NCc1cccc(C(F)(F)F)c1)NC1CC(O)(C(F)(F)F)C1 (centres unmarked) [Example 42, 1-(3-Hydroxy-3-trifluoromethyl-cyclobutyl)-3-(3-trifluoromethyl-benzyl)-urea] | 1920 | 1170
20 | O=C(NCc1ccnc(OCC(F)(F)F)c1)NC12CC(C1)C2 [Example 43, 1-Bicyclo[1.1.1]Pent-1-yl-3-[2-(2,2,2-Trifluoro-Ethoxy)-Pyridin-4-Ylmethyl]-Urea] | 967 | 578
21 | O=C(NCc1ccnc(OCC(F)(F)F)c1)NC12CC(F)(C1)C2 [Example 44, 1-(3-Fluoro-bicyclo[1.1.1]pent-1-yl)-3-[2-(2,2,2-trifluoro-ethoxy)-pyridin-4-ylmethyl]-urea] | 1350 | 591
22 | O=C(NCc1ccnc(OCC(F)(F)F)c1)NC12CC(C(F)(F)F)(C1)C2 [Example 45, 1-[2-(2,2,2-Trifluoro-ethoxy)-pyridin-4-ylmethyl]-3-(3-trifluoromethyl-bicyclo[1.1.1]pent-1-yl)-urea] | 701 | 131
23 | O=C(NCc1ccnc(OCC(F)(F)F)c1)NC1CC(C(F)F)C1 (centres unmarked) [Example 46, 1-(3-Difluoromethyl-cyclobutyl)-3-[2-(2,2,2-trifluoro-ethoxy)-pyridin-4-ylmethyl]-urea] | 257 | 148
24 | O=C(NCc1cccc(C(F)(F)F)c1)NC12CCC(C1)C2 [Example 48, 1-Bicyclo[2.1.1]Hex-1-yl-3-(3-Trifluoromethyl-Benzyl)-Urea] | 484 | 232
25 | CC1(NC(=O)NCc2cccc(C(F)(F)F)c2)CC(F)(F)C1 [Example 49, 1-(3,3-Difluoro-1-Methyl-Cyclobutyl)-3-(3-Trifluoromethyl-Benzyl)-Urea] | 628 | 247
